Test results from publication PMC9481151, “Discovery of new symmetrical and asymmetrical nitrile-containing 1,4-dihydropyridine derivatives as dual kinases and P-glycoprotein inhibitors: synthesis, in vitro assays, and in silico studies” (Journal of Enzyme Inhibition and Medicinal Chemistry, 2022).
In brackets after ≈: the same amount, converted by molar mass.

What was measured:
[1] = tested on: K-562; test: NCI single dose (10 µM) SRB screen; type: cell-based, human; conditions: leukaemia, 48 h
[2] = tested on: EKVX; test: NCI single dose (10 µM) SRB screen; type: cell-based, human; conditions: non-small cell lung cancer, 48 h
[3] = tested on: HOP-62; test: NCI single dose (10 µM) SRB screen; type: cell-based, human; conditions: non-small cell lung cancer, 48 h
[4] = tested on: HCC-2998; test: NCI single dose (10 µM) SRB screen; type: cell-based, human; conditions: colon cancer, 48 h
[5] = tested on: HCT-15; test: NCI single dose (10 µM) SRB screen; type: cell-based, human; conditions: colon cancer, 48 h
[6] = tested on: SK-MEL-2; test: NCI single dose (10 µM) SRB screen; type: cell-based, human; conditions: melanoma, 48 h
[7] = tested on: UACC-62; test: NCI single dose (10 µM) SRB screen; type: cell-based, human; conditions: melanoma, 48 h
[8] = tested on: UO-31; test: NCI single dose (10 µM) SRB screen; type: cell-based, human; conditions: renal cancer, 48 h
[9] = tested on: MDA-MB-231; test: NCI single dose (10 µM) SRB screen; type: cell-based, human; conditions: breast cancer, 48 h
[10] = tested on: HS578T; test: NCI single dose (10 µM) SRB screen; type: cell-based, human; conditions: breast cancer, 48 h
[11] = tested on: BT-549; test: NCI single dose (10 µM) SRB screen; type: cell-based, human; conditions: breast cancer, 48 h
[12] = tested on: T-47D; test: NCI single dose (10 µM) SRB screen; type: cell-based, human; conditions: breast cancer, 48 h
[13] = tested on: Pseudomonas aeruginosa; test: Agar well diffusion method; conditions: for zone of inhibition at 1000 µg/mL: Pseudomonas aeruginosa, 24 h, read-out: Diameter of inhibition zone, P. aeruginosa; for % activity index, P. aeruginosa: relative to ciprofloxacin
[14] = tested on: Candida albicans; test: Agar well diffusion method; conditions: for zone of inhibition at 1000 µg/mL: Candida albicans, 24 h, read-out: Diameter of inhibition zone, C. albicans; for % activity index, C. albicans: relative to clotrimazole
[15] = tested on: S. aureus; test: MIC, two-fold microbroth dilution method; conditions: Staphylococcus aureus, read-out: MIC (µg/mL) S. aureus
[16] = tested on: B. subtilis; test: MIC, two-fold microbroth dilution method; conditions: Bacillus subtilis, read-out: MIC (µg/mL) B. subtilis
[17] = tested on: E. coli; test: MIC, two-fold microbroth dilution method; conditions: Escherichia coli, read-out: MIC (µg/mL) E. coli
[18] = tested on: P. aeruginosa; test: MIC, two-fold microbroth dilution method; conditions: Pseudomonas aeruginosa, read-out: MIC (µg/mL) P. aeruginosa
[19] = tested on: C. albicans; test: MIC, two-fold microbroth dilution method; conditions: Candida albicans, read-out: MIC (µg/mL) C. albicans
[20] = tested on: A. flavus; test: MIC, two-fold microbroth dilution method; conditions: Aspergillus flavus, read-out: MIC (µg/mL) A. flavus
[21] = tested on: HOP-92; test: NCI single dose (10 µM) SRB screen; type: cell-based, human; conditions: non-small cell lung cancer, 48 h

Row | Structure (SMILES) | GI% K-562 [1] | GI% EKVX [2] | GI% HOP-62 [3] | GI% HCC-2998 [4] | GI% HCT-15 [5] | GI% SK-MEL-2 [6] | GI% UACC-62 [7] | GI% UO-31 [8] | GI% MDA-MB-231 [9] | GI% HS578T [10] | GI% BT-549 [11] | GI% T-47D [12] | melting point [°C] | zone of inhibition at 1000 µg/mL [13] [mm] | % activity index, P. aeruginosa [13] [%] | zone of inhibition at 1000 µg/mL [14] [mm] | % activity index, C. albicans [14] [%] | GI% HOP-92 [21] | also measured
1 | CCOC(=O)C1=C(C)NC(C)=C(C(=O)OCCOC)C1c1cccc(C#N)c1 (racemic) [Compound 2k, (±)-3-Ethyl 5-(2-methoxyethyl) 4-(3-cyanophenyl)-2,6-dimethyl-1,4-dihydropyridine-3,5-dicarboxylate] | 10% | – (Only GI% ≥ 10 are shown) | – (Only GI% ≥ 10 are shown) | – (Only GI% ≥ 10 are shown) | – (Only GI% ≥ 10 are shown) | – (Only GI% ≥ 10 are shown) | – (Only GI% ≥ 10 are shown) | – (Only GI% ≥ 10 are shown) | – (Only GI% ≥ 10 are shown) | – (Only GI% ≥ 10 are shown) | – (Only GI% ≥ 10 are shown) | – (Only GI% ≥ 10 are shown) | 133 to 134 | 20 | 86.9 | 16 | 59.2 |  | MIC [15]: 16 µg/mL (≈ 41.6 µM); MIC [16]: 8 µg/mL (≈ 20.8 µM); MIC [17]: 4 µg/mL (≈ 10.4 µM); MIC [18]: 8 µg/mL (≈ 20.8 µM); MIC [19]: 32 µg/mL (≈ 83.2 µM); MIC [20]: 32 µg/mL (≈ 83.2 µM)
2 | COC(=O)C1=C(C)NC(C)=C(C(=O)OC)C1c1cccc(C#N)c1 [Compound 1a, Dimethyl 4-(3-cyanophenyl)-2,6-dimethyl-1,4-dihydropyridine-3,5-dicarboxylate] | – (Only GI% ≥ 10 are shown) | – (Only GI% ≥ 10 are shown) | – (Only GI% ≥ 10 are shown) | – (Only GI% ≥ 10 are shown) | – (Only GI% ≥ 10 are shown) | – (Only GI% ≥ 10 are shown) | – (Only GI% ≥ 10 are shown) | – (Only GI% ≥ 10 are shown) | – (Only GI% ≥ 10 are shown) | – (Only GI% ≥ 10 are shown) | – (Only GI% ≥ 10 are shown) | – (Only GI% ≥ 10 are shown) | 200 to 202 | 12 | 52.2 | 13 | 48.1 | – (Only GI% ≥ 10 are shown) | 
3 | CCOC(=O)C1=C(C)NC(C)=C(C(=O)OCC)C1c1cccc(C#N)c1 [Compound 1b, Diethyl 4-(3-cyanophenyl)-2,6-dimethyl-1,4-dihydropyridine-3,5-dicarboxylate] | 43% | – (Only GI% ≥ 10 are shown) | – (Only GI% ≥ 10 are shown) | – (Only GI% ≥ 10 are shown) | 23% | – (Only GI% ≥ 10 are shown) | 20% | 13% | – (Only GI% ≥ 10 are shown) | 16% | – (Only GI% ≥ 10 are shown) | 23% | 144 to 146 | 10 | 43.5 | 15 | 55.5 | 10% | 
